From patent US5091523A (priority 1990, dated 1992)
≈ marks a conversion by molar mass, not a printed value. Like-named read-outs stand apart in the source and are kept apart here.

Assays:
P388 leukemia [1] = test: Murine P388 leukemia antitumor activity (Example 14, Table 5); assay type: in vivo, murine (CD2F1 male mice)
Excerpt: T is the mean survival days of mice receiving drug=treated mice
C is the mean survival days of the mice receiving drug vehicle.

[2] = Weight loss resultant from drug toxicity (Example 14, Table 5)
Protocol: Each compound was administered intraperitoneally to groups of CD2F1 male mice on Day 1 following intraperitoneal implantation of 1×10^6 P388 leukemia cells.
Weight loss resultant from drug toxicity was also determined.

[3] = test system: human breast cancer cell lines; assay type: cell-based; conditions: soft agar; for effect on anchorage-independent colony formation / cell survival: two assays (FIG. 5)
Excerpt: (§1) Since a major use of analogues would be for the treatment of this disease, in vitro screening against human breast cancer cell lines was investigated. Two cell lines were investigated. […] The MCF-7 cell line retains estrogen receptor expression, has an absolute requirement for estrogen to form tumors in nude mice, responds to antiestrogen therapy and is more representative of tumors with a better prognosis.
The anchorage-independent assay ensures that the cells grow in suspension in a soft agar solution. Thus, cells must retain both their basal reproductive integrity and their ability to grow in suspension. The data in FIG. 5 represents the results of two anchorage-independent colony formation assays. The assays were performed as described by Clarke et al., J. Endocrinol. 122: 331-340 (1989).

MDA-MB-231 cells [4] = test: Inhibition of the rate of cell proliferation; assay type: cell-based, human; conditions: for effect on the rate of cell proliferation / cell population kinetics: MDA-MB-231 (FIG. 3)
Excerpt: as §1
(§2) The interpretation of the effects of cytotoxic drugs on the rate of cell proliferation is a more difficult endpoint to interpret. For example, a cytotoxic agent may apparently reduce the rate of cell growth by killing a proportion of the cells. Alternatively, all the cells in the population may be growth arrested but not killed. Both of these series of events could produce identical growth curves.

bone marrow = conditions: preclinical and clinical studies; cited from earlier work
MDA-MB-231 cells [5] = test: Anchorage-dependent colony formation; assay type: cell-based, human
Excerpt: as §1
Consequently, the most accurate methods for determining cell kill measure the ability of a single cell to produce a clone of 50 or more cells (equivalent to six or more divisions). Two clonogenic assays were utilized. The anchorage-dependent assay provides the cells with a solid plastic substrate for attachment. The experiments were preformed as described by van den Berg et al. (1981), supra.

[6] = test system: murine and human neoplasms; conditions: preclinical and clinical studies; cited from earlier work
[7] = test system: MCF-7 human breast tumor cell line; test: Inhibition of DNA synthesis ([^3 H] deoxythymidine incorporation), MCF-7; assay type: cell-based; conditions: for inhibition of DNA synthesis: MCF-7, pharmacologically relevant concentrations (FIG. 2)
Excerpt: as §1
(§3) The cytotoxic effects of Mitomycin-C are largely the result of its interactions with DNA. Consequently, the ability of Mitomycin-C and its analogues to inhibit the rate of incorporation of [^3 H] deoxythymidine into DNA was initially determined. Deoxythymidine is an essential precursor for the synthesis of DNA. The experiments were performed as described by Clarke et al., Br. J. Cancer 51: 365-369 (1985).

metastatic breast cancer = conditions: cited from earlier work
[8] = test system: Gram-negative strain of bacteria (HB101); test: Antibacterial activity, agar dilution M.I.C. (Example 12, Table 4); assay type: cell-based; conditions: read-out: M.I.C. Gram-negative Bacteria
Protocol: Minimum inhibition concentration (M.I.C.) against a Gram-negative strain of bacteria (HB101) was estimated by the dilution method, with graded concentrations of drug added to agar at 37°-40° C. […] The agar, containing drug, quickly solidified at room temperature, and the bacteria were plated immediately.

P388 leukemia [9] = conditions: cited from earlier work
[10] = test system: MDA-MB-231 human breast tumor cell line; test: Inhibition of DNA synthesis ([^3 H] deoxythymidine incorporation), MDA-MB-231; assay type: cell-based; conditions: for inhibition of DNA synthesis: MDA-MB-231, pharmacologically relevant concentrations (FIG. 1)
Excerpt: as §1, §3

P388 leukemia [11] = test: Murine P388 leukemia antitumor activity (Example 11, Table 2); assay type: in vivo, murine (CD2F1 male mice); conditions: for % ILS (percentage increased life span): Day 1, P388 leukemia; for Mean Survival: control 10.0
Protocol: The murine P388 leukemia system, maintained intraperitoneally in female DBA/2 mice, was used to evaluate antitumor activity.
The P388 antileukemic activity of the test compound was assessed by mean survival days and percentage increased life span (ILS). The % ILS was calculated as follows: […]
where T is the mean survival days of the treated mice and C is the mean survival days of the untreated mice.

[12] = test system: peripheral leukocyte (WBC); test: In vivo murine WBC depression / bone marrow toxicity (Table 3); set-up: species or system normal CD2F1 male mice
Protocol: Blood samples obtained were diluted in 9.98 ml of Isoton (a neutral, isotonic buffer solution) and counted in a Coulter counter after lysis with Zapoglobin (an enzyme solution which lyses red blood cells, but not white blood cells). WBC counts are expressed as a percentage of values from control mice receiving drug vehicle only.

[13] = test system: human breast cancer cell lines; test: Conclusion over all four in vitro endpoints; assay type: cell-based
Excerpt: as §1, §3, §2
Consequently, the most accurate methods for determining cell kill measure the ability of a single cell to produce a clone of 50 or more cells (equivalent to six or more divisions). […]

[14] = Host toxicity (preliminary data); assay type: in vivo, mice; conditions: for mortality: mouse, in vivo, one ip injection, read-out: fatalities
Excerpt: Further, in vivo testing will be performed in two parts. Firstly, the host toxicity of the analogues in comparison with the parent drug will be tested. The concentration required to kill approximately 10% of a population of mice will then be determined. Histopathological analysis will determine the effect of drug treatment on tissues and organs. Analysis of white blood cell counts will provide information on hematopoietic toxicity. […] 80% and 100% fatalities were observed following one intraperitoneal injection of 30 and 40 mg/kg MC-77 respectively.

CO[C@@]12[C@H](COC(N)=O)C3=C(C(=O)C(C)=C(Nc4ccc(OP(=O)(O)O)cc4)C3=O)N1C[C@@H]1N[C@@H]12 [N^7-(4-phosphatophenyl)mitomycin C]
% ILS (P388 leukemia [1]; 15 mg/kg ip): 84
30-day survivor (P388 leukemia [1]; 30 mg/kg ip): 1/5
% ILS (P388 leukemia [1]; 30 mg/kg ip): > 150
weight loss ([2]; 15 mg/kg ip): No weight loss
Average weight loss ([2]; 30 mg/kg ip): 8%
body weight decrease for all mice ([2]; 45 mg/kg ip, by Day 6 post-drug injection): 20-24%

CO[C@@]12[C@H](COC(N)=O)C3=C(C(=O)C(C)=C(N)C3=O)N1C[C@@H]1N[C@@H]12 [Mitomycin C, mitomycin C, reference compound]
effect on anchorage-independent colony formation / cell survival [3]: dose dependent reductions in cell survival
effect on the rate of cell proliferation / cell population kinetics (MDA-MB-231 cells [4]): significantly inhibited the rate of cell proliferation
% ILS (P388 leukemia [1]; 5 mg/kg ip): 83
bone marrow toxicity (bone marrow): severe, delayed bone marrow toxicity
reduction in anchorage-dependent colony forming ability (MDA-MB-231 cells [5]; MDA-MB-231, 0.25 uM): significant reduction in colony forming ability
activity against murine and human neoplasms [6]: activity against a variety of murine and human neoplasms
inhibition of DNA synthesis [7]: significant and dose dependent inhibition of DNA synthesis
objective responses in patients (metastatic breast cancer): significant percentage of objective responses
MIC ([8]; HB101, agar, 24 hours at 37° C.): 0.3 to 0.5 µg/mL (≈ 0.897 to 1.5 µM)
optimal single ip P388 therapeutic dose (P388 leukemia [9]): 4.5 to 5.5 mg/kg
inhibition of DNA synthesis [10]: significant and dose dependent inhibition of DNA synthesis

CO[C@@]12[C@H](COC(N)=O)C3=C(C(=O)C(C)=C(N[C@H]4C(O)O[C@H](CO)[C@@H](O)[C@@H]4O)C3=O)N1C[C@@H]1N[C@@H]12 (some centres unmarked) [N^7-(2-deoxyglucopyranosyl)mitomycin C]
% ILS (percentage increased life span) (P388 leukemia [11]; 5 mg/kg ip): 42%
Mean Survival (P388 leukemia [11]; 5 mg/kg ip): 14.2 days
% ILS (percentage increased life span) (P388 leukemia [11]; 13.5 mg/kg ip): 61%
Mean Survival (P388 leukemia [11]; 13.5 mg/kg ip): 16.1 days
activity against the murine P388 tumor system (P388 leukemia [11]; summary): significant activity against the murine P388 tumor system
WBC Count on Day 3 (as percent of control) ([12]; 13.5 mg/kg ip, normal CD2F1 male mice, Day 3): 94%
bone marrow toxicity as determined by depression of peripheral leukocyte (WBC) count ([12]; summary, at active doses): no significant bone marrow toxicity
MIC ([8]; 24 h): 1.66 to 3.3 µg/mL (≈ 3.34 to 6.65 µM)

CO[C@@]12[C@H](COC(N)=O)C3=C(C(=O)C(C)=C(Nc4ccc(O[C@@H]5O[C@H](COC(C)=O)[C@@H](OC(C)=O)[C@H](OC(C)=O)[C@H]5OC(C)=O)cc4)C3=O)N1C[C@@H]1N[C@@H]12 [MC-77, 7-{[4-(2,3,4,6-tetra-O-acetyl-β-D-glucopyranosyl)oxyphenyl]amino}-9-methoxymitosane]
effect on anchorage-independent colony formation / cell survival [3]: dose dependent reductions in cell survival
cytotoxicity in anchorage-independent assay compared with Mitomycin-C ([3]; vs Mitomycin-C): two to five fold more cytotoxic
effect on the rate of cell proliferation / cell population kinetics (MDA-MB-231 cells [4]): significantly inhibited the rate of cell proliferation
cell number relative to starting cell number (MDA-MB-231 cells [4]; MDA-MB-231, 1.5 uM): reduced cell number below starting cell number
reduction in anchorage-dependent colony forming ability (MDA-MB-231 cells [5]; MDA-MB-231, 0.25 uM): significant reduction in colony forming ability
inhibition of anchorage-dependent colony formation compared with Mitomycin-C (MDA-MB-231 cells [5]; MDA-MB-231, 0.25 uM, vs equimolar Mitomycin-C, estimated): approximately two to five fold greater
cytotoxic potential compared with the parent drug (all four endpoints) ([13]; vs Mitomycin-C): marked improvement in the cytotoxic potential of between two and five fold
inhibition of DNA synthesis compared with the parent compound ([7]; MCF-7, equimolar concentrations, vs Mitomycin-C): two to five fold greater inhibition of DNA synthesis
inhibition of DNA synthesis [7]: significant and dose dependent inhibition of DNA synthesis
fold less toxic than the parent drug ([14]; inconclusive preliminary data, vs Mitomycin-C): up to two fold less toxic than the parent drug
mortality ([14]; 30 mg/kg, preliminary, one experiment): 80%
mortality ([14]; 40 mg/kg, preliminary, one experiment): 100%
toxicity compared with Mitomycin-C ([14]; preliminary): no more toxic when compared with Mitomycin-C
dose response curve for toxicity ([14]; preliminary, one experiment): retained the steep dose response curve for toxicity
inhibition of DNA synthesis compared with the parent compound ([10]; MDA-MB-231, equimolar concentrations, vs Mitomycin-C): two to five fold greater inhibition of DNA synthesis
inhibition of DNA synthesis [10]: significant and dose dependent inhibition of DNA synthesis

CO[C@@]12[C@H](COC(N)=O)C3=C(C(=O)C(C)=C(NCCCC(=O)N[C@@H]4O[C@H](COC(C)=O)[C@@H](OC(C)=O)[C@H](OC(C)=O)[C@H]4NC(C)=O)C3=O)N1C[C@@H]1N[C@@H]12 [MC-62, 7-{3-[(2-acetamido-3,4,6-tri-O-acetyl-β-D-glucopyranosyl)-amino]carbonylpropylamino}-9-methoxymitosane]
effect on anchorage-independent colony formation / cell survival [3]: consistently fails to influence colony formation
effect on the rate of cell proliferation / cell population kinetics (MDA-MB-231 cells [4]): failed to markedly influence the rate of MDA-MB-231 growth
effect on anchorage-dependent colony formation (MDA-MB-231 cells [5]; MDA-MB-231 (FIG. 4)): did not significantly influence colony formation
antineoplastic potential (all four endpoints) [13]: significantly reduced antineoplastic potential
potency in inhibition of DNA synthesis relative to Mitomycin-C and MC-77 ([7]; MCF-7): significantly less potent than both Mitomycin-C and MC-77
potency in inhibition of DNA synthesis relative to Mitomycin-C and MC-77 ([10]; MDA-MB-231): significantly less potent than both Mitomycin-C and MC-77
